Results on 5 compounds are retold here after patent US10815274B2, “Immunogenic WT-1 peptides and methods of use thereof” (Memorial Sloan Kettering Cancer Center, priority 2012, dated 2020).

Data set [1] has as its system WT1- autologous APC. Put plainly: Cr51 release assay, cytotoxic CTL response vs unmodified autologous APC. It is filed as cell-based, human. As to conditions: 50:1 E:T.
Data set [2] deals with WT1 peptide loaded autologous APC. Put plainly: Cr51 release assay, cytotoxic CTL response vs peptide loaded autologous APC. It counts as cell-based, human. As to conditions: 50:1 E:T.
Data set [3] concerns WT1- leukemia. Put plainly: Cr51 release assay, cytotoxic CTL response vs WT1- leukemia. To be noted: 50:1 E:T. It counts as cell-based, human. From the text:
(§1) Twenty-four primary leukemic cells and 1 leukemic cell line were characterized for their expression of WT1 by intracellular FACS staining using murine anti-human WT1 monoclonal antibodies (Neomarkers, Fremont, Calif.) as previously described (32,38) The WT1+ leukemias included blast cells from 11 primary AMLs, 3 primary ALLs and 1B-cell precursor ALL cell line. Ten WT1-leukemias, were used as controls, and included 3 B-cell precursor ALLs and 7 AMLs.

Data set [4] relates to WT1+ leukemia. Put plainly: Cr51 release assay, cytotoxic CTL response vs WT1+ leukemia expressing restricting HLA allele. To be noted: 50:1 E:T. It counts as cell-based, human.
Excerpt: as §1
PHA blasts were not available from every patient that provided leukemia blasts for this study.

Data set [5] concerns WT1- allo APC with restricting HLA allele. Put plainly: Cr51 release assay, cytotoxic CTL response vs unloaded allogeneic APC sharing restricting HLA allele. It is filed as cell-based, human. As to conditions: 50:1 E:T.
Data set [6] concerns WT1+ allo APC with restricting HLA allele loaded with WT1 peptide. The experiment in a line: Cr51 release assay, cytotoxic CTL response vs peptide loaded allogeneic APC sharing restricting HLA allele (HLA restriction). To be noted: for Cytotoxic CTL response, % vs WT1+ allo APC with restricting HLA allele loaded with WT1 peptide: 50:1 E:T.

Where a SMILES comes first, the peptide text is derived from it.

Turning to `CC(C)C[C@H](NC(=O)[C@H](CS)NC(=O)CNC(=O)[C@@H]1CCCN1)C(=O)N[C@@H](CCC(N)=O)C(=O)N[C@@H](CCC(N)=O)C(=O)N1CCC[C@H]1C(=O)N[C@@H](CCC(=O)O)C(=O)N[C@@H](CCC(N)=O)C(=O)O` [SEQ ID NO: 148] (H-PGCLQQPEQ-OH; N-terminus and C-terminus assumed), the “Cytotoxic CTL response, % vs WT1- autologous APC” value in data set [1] (HLA allele A0201) and in data set [1] (HLA allele B4701) was 6% in each case. In addition, the “Cytotoxic CTL response, % vs WT1 peptide loaded autologous APC” value in data set [2] (HLA allele A0201) and in data set [2] (HLA allele B4701) was 54% throughout. The “Cytotoxic CTL response, % vs WT1- leukemia” value in data set [3] (HLA allele A0201) was 5%. Also, the “Cytotoxic CTL response, % vs WT1+ leukemia” value in data set [4] (HLA allele A0201) is given as 19%. Further, the entries for the “Cytotoxic CTL response, % vs WT1- allo APC with restricting HLA allele” value in data set [5] (HLA allele A0201) and in data set [5] (HLA allele B4701) were 7% and 1%, respectively. Besides, the “Cytotoxic CTL response, % vs WT1+ allo APC with restricting HLA allele loaded with WT1 peptide” value (“Cytotoxic CTL response, % … with WT1 peptide” below) in data set [6] (HLA allele A0201) amounted to 27%; in data set [6] (HLA allele B4701), 25%.
On to `CC(C)C[C@H](N)C(=O)N[C@@H](CC(=O)O)C(=O)N[C@@H](Cc1ccccc1)C(=O)N[C@@H](C)C(=O)N1CCC[C@H]1C(=O)N1CCC[C@H]1C(=O)NCC(=O)N[C@@H](C)C(=O)N[C@@H](CO)C(=O)N[C@@H](C)C(=O)N[C@@H](Cc1ccc(O)cc1)C(=O)O` [SEQ ID NO: 156] (H-LDFAPPGASAY-OH; N-terminus and C-terminus assumed), for which, in data set [1] (HLA allele DRB10402), the “Cytotoxic CTL response, % vs WT1- autologous APC” value came out at 0%. In addition, the “Cytotoxic CTL response, % vs WT1 peptide loaded autologous APC” value in data set [2] (HLA allele DRB10402) is on record as 73%. For the same compound, in data set [3] (HLA allele DRB10402), the “Cytotoxic CTL response, % vs WT1- leukemia” value stood at 0%. In addition, the “Cytotoxic CTL response, % vs WT1+ leukemia” value in data set [4] (HLA allele DRB10402) is recorded as 40%. In addition, in data set [5] (HLA allele DRB10402), the “Cytotoxic CTL response, % vs WT1- allo APC with restricting HLA allele” value worked out at 1%. The “Cytotoxicity of T-cells restricted by HLA A0201 against loaded targets” value in data set [6] (HLA A0201) is “able to lyse”. Also, the “Cytotoxic CTL response, % … with WT1 peptide” value in data set [6] (HLA allele DRB10402) was determined as 71%. The “Cytotoxicity of class II HLA-restricted T-cells against loaded targets” value in data set [6] (targets sharing the alleles DRB1 0402 and DQB1 0302) was “selectively cytotoxic”.
Take `CC(C)C[C@H](NC(=O)[C@H](CC(C)C)NC(=O)[C@H](CC(C)C)NC(=O)[C@H](C)NC(=O)[C@H](CCC(N)=O)NC(=O)[C@H](CO)NC(=O)CNC(=O)[C@@H](NC(=O)[C@@H](N)CS)[C@@H](C)O)C(=O)O` [SEQ ID NO: 167] (H-CTGSQALLL-OH; N-terminus and C-terminus assumed): the “Cytotoxic CTL response, % vs WT1- autologous APC” value in data set [1] (HLA allele A0101) came to 0%. Besides, in data set [2] (HLA allele A0101), the “Cytotoxic CTL response, % vs WT1 peptide loaded autologous APC” value is 21%. Further, the “Cytotoxic CTL response, % vs WT1- leukemia” value in data set [3] (HLA allele A0101) came out at 3%. The “Cytotoxic CTL response, % vs WT1+ leukemia” value in data set [4] (HLA allele A0101) was found to be 33%. The “Cytotoxic CTL response, % vs WT1- allo APC with restricting HLA allele” value in data set [5] (HLA allele A0101) was determined as 0%. Moreover, the “Cytotoxic CTL response, % … with WT1 peptide” value in data set [6] (HLA allele A0101) is listed as 26%.
Turning to `CSCC[C@H](NC(=O)[C@H](CCC(N)=O)NC(=O)[C@H](CC(N)=O)NC(=O)[C@@H](N)Cc1c[nH]c2ccccc12)C(=O)N[C@@H](CC(N)=O)C(=O)N[C@@H](CC(C)C)C(=O)NCC(=O)N[C@@H](C)C(=O)N[C@H](C(=O)O)[C@@H](C)O` [SEQ ID NO: 171] (H-WNQMNLGAT-OH; N-terminus and C-terminus assumed), the “Cytotoxic CTL response, % vs WT1- autologous APC” value in data set [1] (HLA allele A0101), in data set [1] (HLA allele A0201), in data set [1] (HLA allele B3508) and in data set [1] (HLA allele C1701) was 0% each time. The “Cytotoxic CTL response, % vs WT1 peptide loaded autologous APC” value in data set [2] (HLA allele A0101) came to 26%; in data set [2] (HLA allele A0201) it was 18%; in data set [2] (HLA allele B3508), 18%; in data set [2] (HLA allele C1701) it was 10%. Moreover, the figures for the “Cytotoxic CTL response, % vs WT1- leukemia” value in data set [3] (HLA allele A0201), in data set [3] (HLA allele B3508) and in data set [3] (HLA allele C1701) were 1%, 4% and 1%, respectively. Besides, the “Cytotoxic CTL response, % vs WT1+ leukemia” value is reported as 19% in data set [4] (HLA allele A0201), 19% in data set [4] (HLA allele B3508) and 16% in data set [4] (HLA allele C1701). Moreover, the “Cytotoxic CTL response, % vs WT1- allo APC with restricting HLA allele” value in data set [5] (HLA allele A0101) came out at 3%; in data set [5] (HLA allele A0201), 0%; in data set [5] (HLA allele B3508), 2%; in data set [5] (HLA allele C1701), 0%. Also, the “Cytotoxic CTL response, % … with WT1 peptide” value was 19% in data set [6] (HLA allele A0101), 21% in data set [6] (HLA allele A0201), 21% in data set [6] (HLA allele B3508) and 7% in data set [6] (HLA allele C1701).
As to `CSCC[C@H](NC(=O)[C@H](CCCNC(=N)N)NC(=O)[C@H](C)NC(=O)[C@H](CCC(N)=O)NC(=O)CNC(=O)[C@@H](N)CO)C(=O)N[C@@H](Cc1ccccc1)C(=O)N1CCC[C@H]1C(=O)N[C@@H](CC(N)=O)C(=O)O` [SEQ ID NO: 160] (H-SGQARMFPN-OH; N-terminus and C-terminus assumed), the “Cytotoxic CTL response, % vs WT1- autologous APC” value in data set [1] (HLA allele B3503) and in data set [1] (HLA allele C0401) was 0% in each case. The “Cytotoxic CTL response, % vs WT1 peptide loaded autologous APC” value in data set [2] (HLA allele B3503) and in data set [2] (HLA allele C0401) was 84% in each case. For the same compound, the “Cytotoxic CTL response, % vs WT1- allo APC with restricting HLA allele” value in data set [5] (HLA allele B3503) and in data set [5] (HLA allele C0401) was 3% in each case. The “Cytotoxic CTL response, % … with WT1 peptide” value in data set [6] (HLA allele B3503) and in data set [6] (HLA allele C0401) was 41% in each case.
